From ChEMBL document CHEMBL6121016, “Design, Synthesis, and Biological Evaluation of 1,3,4-Thiadiazole Derivatives as Novel Potent Peptide Deformylase Inhibitors for Combating Drug-Resistant Gram-Positive and -Negative Bacteria” (J Med Chem, 2025)
Converted amounts (≈) assume the structure as drawn. The source made the active and inactive calls. No cut-off for these calls is given here.

Experiments:
Acinetobacter baumannii [1] = experiment: In vivo anti-bacterial activity against drug-resistant Acinetobacter baumannii infected MK mouse; format: functional
[2] = Acute toxicity in normal mouse assessed as aberrant behaviors at 200 mg/kg, iv observed for 14 days; format: organism-based; conditions: in vivo, 336 h, time 14 day
Acinetobacter baumannii [3] = experiment: Anti-biofilm activity against of Acinetobacter baumannii assessed as growth inhibition at 2 microg/ml incubated for 24 hrs by microplate reader analysis relative to control; format: functional
[4] = Cytotoxicity against human HeLa cells assessed as cell viability at 3.125 to 100 uM incubated for 24 hrs by MTT assay; format: toxicity, cell-based
[5] = Acute toxicity in normal mouse assessed as aberrant behaviors at 400 mg/kg, iv observed for 14 days; format: organism-based; conditions: in vivo, 336 h, time 14 day
Staphylococcus aureus [6] = experiment: Induction of morphological changes in methicillin-resistant Staphylococcus aureus RB 3641 assessed as disintegration of cells at 8 times of MIC incubated for 4 hrs by Field emission scanning electron microscopic analysis; format: functional, organism-based
Acinetobacter baumannii [7] = experiment: Anti-biofilm activity against Acinetobacter baumannii assessed as growth inhibition at 32 microg/ml incubated for 24 hrs by microplate reader analysis relative to control; format: functional
Escherichia coli [8] = experiment: Antibacterial activity against Escherichia coli ATCC 10668 after 16 to 18 hrs by broth microdilution method; format: functional; conditions: time 16-18 hrs
Staphylococcus aureus [9] = experiment: Antibacterial activity against methicillin-susceptible Staphylococcus aureus ATCC 29213 after 16 to 18 hrs by broth microdilution method; format: functional; conditions: time 16-18 hrs
[10] = system: Staphylococcus epidermidis; experiment: Antibacterial activity against Staphylococcus epidermidis after 16 to 18 hrs by broth microdilution method; format: functional; conditions: time 16-18 hrs
Acinetobacter baumannii [11] = experiment: Induction of intracellular ROS production in Acinetobacter baumannii Bio 53272 cells assessed as membrane potential imbalance incubated for 12 hrs by DCFH-DA probe based ROS assay; format: functional, organism-based
[12] = Acute toxicity in normal mouse assessed as death at 200 mg/kg, iv observed for 14 days; format: organism-based; conditions: in vivo, 336 h, time 14 day
Acinetobacter baumannii [13] = experiment: Antibacterial activity against Acinetobacter baumannii Bio 120982 after 16 to 18 hrs by broth microdilution method; format: functional; conditions: time 16-18 hrs
Acinetobacter baumannii [14] = experiment: Antibacterial activity against Acinetobacter baumannii Bio 24253 after 16 to 18 hrs by broth microdilution method; format: functional; conditions: time 16-18 hrs
Staphylococcus aureus [15] = experiment: Antibacterial activity against methicillin-resistant Staphylococcus aureus Bio-090770 after 16 to 18 hrs by broth microdilution method; format: functional; conditions: time 16-18 hrs
Escherichia coli [16] = experiment: Antibacterial activity against Escherichia coli ATCC 25922 after 16 to 18 hrs by broth microdilution method; format: functional; conditions: time 16-18 hrs
Acinetobacter baumannii [17] = experiment: In vivo anti-bacterial activity against drug-resistant Acinetobacter baumannii infected MK mouse assessed as pathological changes of organs at 40 mg/kg; format: functional, organism-based
Acinetobacter baumannii [18] = experiment: Antibacterial activity against drug-resistant Acinetobacter baumannii Bio 53272 after 16 to 18 hrs by broth microdilution method; format: functional; conditions: time 16-18 hrs
[19] = Acute toxicity in KM mouse infected with drug-resistant Acinetobacter baumannii assessed as pathological changes in liver at 40 mg/kg by HE staining based analysis; format: organism-based; conditions: in vivo
Acinetobacter baumannii [20] = experiment: Antibacterial activity against Acinetobacter baumannii Bio 53250 after 16 to 18 hrs by broth microdilution method; format: functional; conditions: time 16-18 hrs
Staphylococcus aureus [21] = experiment: Anti-biofilm activity against methicillin-resistant Staphylococcus aureus assessed as growth inhibition at 4 microg/ml incubated for 24 hrs by microplate reader analysis relative to control; format: functional
Staphylococcus aureus [22] = experiment: Bactericidal activity against methicillin-resistant Staphylococcus aureus assessed as bacteriostatic efficiency at 0.25 microg/mL incubated for 24 hrs by time killing analysis relative to control; format: functional; conditions: dose 0.25 µg/ml
Escherichia coli [23] = experiment: Potency index, ratio of LBM415 MIC to test compound MIC for antibacterial activity against Escherichia coli after 16 to 18 hrs by broth microdilution method; format: functional; conditions: time 16-18 hrs
Acinetobacter baumannii [24] = experiment: Potency index, ratio of ciprofloxacin MIC to test compound MIC for antibacterial activity against drug-resistant Acinetobacter baumannii after 16 to 18 hrs by broth microdilution method; format: functional; conditions: time 16-18 hrs
Staphylococcus aureus [25] = experiment: Antibacterial activity against methicillin-susceptible Staphylococcus aureus ATCC 25923 after 16 to 18 hrs by broth microdilution method; format: functional; conditions: time 16-18 hrs
[26] = Cytotoxicity against human HEK293T cells assessed as cell viability at 3.125 to 100 uM incubated for 24 hrs by MTT assay; format: toxicity, cell-based, HEK-293T
[27] = Acute toxicity in KM mouse infected with drug-resistant Acinetobacter baumannii assessed as pathological changes in lungs at 40 mg/kg by HE staining based analysis; format: organism-based; conditions: in vivo
Staphylococcus aureus [28] = experiment: Antibacterial activity against methicillin-resistant Staphylococcus aureus ATCC 43300 after 16 to 18 hrs by broth microdilution method; format: functional; conditions: time 16-18 hrs
Cell membrane = experiment: Induction of cell membrane disruption in Acinetobacter baumannii assessed as outer membrane integrity by NucGreen/EthD-III costain fluorescent assay; format: subcellular
Acinetobacter baumannii [29] = experiment: Bactericidal activity against drug-resistant Acinetobacter baumannii assessed as bacteriostatic efficiency at 2 microg/mL measured within 24 hrs by time killing analysis relative to control; format: functional, organism-based; conditions: dose 2.0 µg/ml
Acinetobacter baumannii [30] = experiment: Anti-biofilm activity against Acinetobacter baumannii at 0.5 to 64 microg/ml incubated for 24 hrs by microplate reader analysis; format: functional; conditions: dose 0.5-64 µg/ml, at 0.5 to 64 µg/mL
Staphylococcus aureus [31] = experiment: Anti-biofilm activity against mature methicillin-resistant Staphylococcus aureus at 8 microg/ml incubated for 24 hrs by microplate reader analysis; format: functional; conditions: dose 8 µg/ml
Staphylococcus aureus [32] = experiment: Antibacterial activity against methicillin-susceptible Staphylococcus aureus ATCC 13709 after 16 to 18 hrs by broth microdilution method; format: functional; conditions: time 16-18 hrs
Escherichia coli [33] = experiment: Antibacterial activity against Escherichia coli ATCC 10663 after 16 to 18 hrs by broth microdilution method; format: functional; conditions: time 16-18 hrs
[34] = Aqueous solubility of compound at 0.9% aqueous NaCl solution incubated for 2 hrs by UV spectrophotometry analysis; format: physicochemical
[35] = Acute toxicity in normal mouse assessed as death at 400 mg/kg, iv observed for 14 days; format: organism-based; conditions: in vivo, 336 h, time 14 day
Acinetobacter baumannii [36] = experiment: Antibacterial activity against Acinetobacter baumannii Bio 69680 after 16 to 18 hrs by broth microdilution method; format: functional; conditions: time 16-18 hrs
[37] = Acute toxicity in KM mouse infected with drug-resistant Acinetobacter baumannii assessed as pathological changes in kidney at 40 mg/kg by HE staining based analysis; format: organism-based; conditions: in vivo
[38] = Methemoglobin toxicity in human blood at 500 uM incubated for 6 hrs by MetHb content assay; format: tissue-based
Peptide deformylase = target: T1, Peptide deformylase (Escherichia coli, UniProt Q9JN24); experiment: Inhibition of Escherichia coli PDF-Ni assessed as enzyme activity incubated for 30 min by fluorescamine method
T1 sequence (Q9JN24 whole entry): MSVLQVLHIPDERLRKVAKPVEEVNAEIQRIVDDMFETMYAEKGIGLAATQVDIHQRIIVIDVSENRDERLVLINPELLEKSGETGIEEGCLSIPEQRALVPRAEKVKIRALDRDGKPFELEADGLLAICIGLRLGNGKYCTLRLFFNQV

Acinetobacter baumannii [39] = experiment: Bactericidal activity against drug-resistant Acinetobacter baumannii assessed as bacteriostatic efficiency at 0.5 to 2 microg/mL by time killing analysis; format: functional, organism-based; conditions: dose 0.5-2 µg/ml, time 0-25 hrs
Klebsiella pneumoniae = experiment: Antibacterial activity against Klebsiella pneumoniae CICC 21611 after 16 to 18 hrs by broth microdilution method; format: functional; conditions: time 16-18 hrs
Acinetobacter baumannii [40] = experiment: Antibacterial activity against Acinetobacter baumannii Bio 34235 after 16 to 18 hrs by broth microdilution method; format: functional; conditions: time 16-18 hrs

Question: With CCCC[C@H](CN(O)C=O)C(=O)N1CCC[C@H]1c1nnc(-c2cccs2)s1 as the compound, how does the ED50 (Acinetobacter baumannii [1]) read?
Answer: The ED50 was 30.4 mg/kg.

Question: What about the Activity [2] of the same compound?
Answer: The Activity was “Non-toxic”.

Question: What about the inhibition at 2 µg/mL (Acinetobacter baumannii [3]) of the same compound?
Answer: The inhibition at 2 µg/mL was 50%.

Question: And the IC50 at 24 h [4]?
Answer: Its IC50 at 24 h is greater than 100 µM.

Question: What about the Activity [5] of the same compound?
Answer: The Activity was “Non-toxic”.

Question: And the Activity (Staphylococcus aureus [6])?
Answer: Its Activity is “Active”.

Question: What about the inhibition at 32 µg/mL (Acinetobacter baumannii [7]) of the same compound?
Answer: The inhibition at 32 µg/mL was 70%.

Question: What about the MIC (Escherichia coli [8]) of the same compound?
Answer: The MIC was 8 µg/mL (≈ 19.6 µM).

Question: What about the MIC (Staphylococcus aureus [9]) of the same compound?
Answer: The MIC was 0.25 µg/mL (≈ 0.612 µM).

Question: What about the MIC [10] of the same compound?
Answer: The MIC was 0.125 µg/mL (≈ 0.306 µM).

Question: What about the Activity (Acinetobacter baumannii [11]) of the same compound?
Answer: The Activity was “Active”.

Question: And the Activity [12]?
Answer: Its Activity is “Non-toxic”.

Question: And the MIC (Acinetobacter baumannii [13])?
Answer: The MIC was 4 µg/mL (≈ 9.79 µM).

Question: And the MIC (Acinetobacter baumannii [14])?
Answer: Its MIC is 4 µg/mL (≈ 9.79 µM).

Question: And the MIC (Staphylococcus aureus [15])?
Answer: Its MIC is 0.25 µg/mL (≈ 0.612 µM).

Question: And the MIC (Escherichia coli [16])?
Answer: The MIC was 2 µg/mL (≈ 4.9 µM).

Question: What about the Activity (Acinetobacter baumannii [17]) of the same compound?
Answer: Its Activity is “inactive”.

Question: What about the MIC (Acinetobacter baumannii [18]) of the same compound?
Answer: Its MIC is 0.5 µg/mL (≈ 1.22 µM).

Question: And the Activity [19]?
Answer: The Activity was “Non-toxic”.

Question: And the MIC (Acinetobacter baumannii [20])?
Answer: The MIC was 4 µg/mL (≈ 9.79 µM).

Question: And the inhibition at 4 µg/mL (Staphylococcus aureus [21])?
Answer: The inhibition at 4 µg/mL was 88%.

Question: And the Activity (Staphylococcus aureus [22])?
Answer: The Activity was 100%.

Question: And the Ratio (Escherichia coli [23])?
Answer: Its Ratio is greater than 16.

Question: What about the Ratio (Acinetobacter baumannii [24]) of the same compound?
Answer: Its Ratio is greater than 64.

Question: What about the MIC (Staphylococcus aureus [25]) of the same compound?
Answer: The MIC was 0.25 µg/mL (≈ 0.612 µM).

Question: And the IC50 at 24 h [26]?
Answer: The IC50 at 24 h was greater than 100 µM.

Question: What about the Activity [27] of the same compound?
Answer: The Activity was “Non-toxic”.

Question: And the MIC (Staphylococcus aureus [28])?
Answer: Its MIC is 0.125 µg/mL (≈ 0.306 µM).

Question: What about the Activity (Cell membrane) of the same compound?
Answer: Its Activity is “Active”.

Question: And the Activity (Acinetobacter baumannii [29])?
Answer: Its Activity is “Active”.

Question: And the Activity (Acinetobacter baumannii [30])?
Answer: The Activity was 7.1%.

Question: And the Activity (Staphylococcus aureus [31])?
Answer: Its Activity is 60%.

Question: And the MIC (Staphylococcus aureus [32])?
Answer: Its MIC is 0.25 µg/mL (≈ 0.612 µM).

Question: What about the MIC (Escherichia coli [33]) of the same compound?
Answer: Its MIC is 8 µg/mL (≈ 19.6 µM).

Question: What about the solubility at 2 h [34] of the same compound?
Answer: Its solubility at 2 h is 2600 µg/mL (≈ 6360 µM).

Question: What about the Activity [35] of the same compound?
Answer: Its Activity is “Non-toxic”.

Question: What about the MIC (Acinetobacter baumannii [36]) of the same compound?
Answer: Its MIC is 4 µg/mL (≈ 9.79 µM).

Question: And the Activity [37]?
Answer: The Activity was “Non-toxic”.

Question: And the Activity [38]?
Answer: The Activity was “Toxic”.

Question: And the IC50 (Peptide deformylase)?
Answer: Its IC50 is 0.0106 µM.

Question: And the Activity (Acinetobacter baumannii [39])?
Answer: The Activity was “Dose-dependent-effect”.

Question: What about the MIC (Klebsiella pneumoniae) of the same compound?
Answer: Its MIC is 8 µg/mL (≈ 19.6 µM).

Question: What about the MIC (Acinetobacter baumannii [40]) of the same compound?
Answer: The MIC was 4 µg/mL (≈ 9.79 µM).
